Measurements: patent publication EP4663640A1 (Shanghai Institute of Materia Medica, Chinese Academy of …, priority 2023, dated 2024)

Test system: mice
Assay: Tail suspension test (antidepression)
Format: in vivo
Experimental: The drug to be tested was dissolved in DMSO: Tween 80: distilled water at a ratio of 2:2:96 (v/v/v), and then administered to mice by gavage at a volume of 10 mL/kg. […] The blank control group was only given 10 mL/kg of the above solvent.
The mouse tail suspension test (TST) is a widely used experimental method to evaluate the effectiveness of antidepressants and other psychotropic drugs. The principle of the test is to suspend a mouse by its tail and observe its behavior. The mouse will initially struggle to escape, but when it realizes that escape is impossible, it will eventually stop struggling and enter a state of immobility that indicates despair. This immobility behavior is used to measure depression-like states, and the severity of the condition is assessed by recording the duration of immobility.
The same mouse was subjected to the tail suspension test immediately after the marble burying test. A tail suspension test box was built using a black frosted acrylic board, 55 cm high, 15 cm long, and 11.5 cm wide. The three sides and top of the box were frosted blackboards, and one side was used for video recording. The mouse tail was wrapped with yellow tape 2 cm away from the tip of the tail, and the mouse was hung upside down in the middle of the top acrylic board. The tip of the mouse tail was about 3 cm away from the acrylic board, and the body was suspended and could not touch the surrounding board wall. The test time for each mouse lasted for 6 minutes, and the immobility time of the mouse during this time was counted. After the experiment, the mouse was returned to the cage, and the inside of the box and the table were wiped with alcohol to remove the smell of the previous mouse to prevent affecting the next mouse experiment. The criteria for immobility in the tail suspension test: stop struggling, no flexion or twisting of the body, no swinging of the hind limbs, and slight swinging of the forelimbs and head were also counted as immobility time.

Cn1c(=O)n(CCCO)c(=O)c2c1nc(C1(F)CCC(F)(F)CC1)n2Cc1ccc(F)c(Cl)c1 [Example E68, 7-(3-chloro-4-fluorobenzyl)-1-(3-hydroxypropyl)-3-methyl-8-(1,4,4-trifluorocyclohexyl)-3,7-dihydro-1H-purine-2,6-dione]
immobility time of mice in the tail suspension box (oral 0.03 mg/kg, test with reduced dosage (Figure 6), comparable to 0.1 mg/kg of HC-070): significantly reduce
immobility time of mice (oral 0.1, 0.3, 1 mg/kg, before versus after administration (Figure 4)): significantly reduced
